pIC50: −log10 of the molar value.
Key:
HCT-116 = experiment: Antiproliferative activity against human HCT116 cells overexpressing FAK assessed as reduction in cell viability after 72 hrs by MTS assay; settings: HCT-116, 72 h
PC-3 = experiment: Antiproliferative activity against human PC3 cells overexpressing FAK assessed as reduction in cell viability after 72 hrs by MTS assay; settings: PC-3, 72 h
U-87 MG = experiment: Antiproliferative activity against human U87MG cells overexpressing FAK assessed as reduction in cell viability after 72 hrs by MTS assay
MCF7 = experiment: Antiproliferative activity against human MCF7 cells overexpressing FAK assessed as reduction in cell viability after 72 hrs by MTS assay; settings: MCF7, 72 h
MCF-10A = experiment: Cytotoxicity against human MCF10A cells assessed as reduction in cell viability after 72 hrs by MTS assay

CNC(=O)c1ccccc1Nc1nc(Nc2ccc(C(=O)N3CCN(C(=S)SCCN(C)C)CC3)cc2)ncc1C
pIC50 (HCT-116): 8.00
pIC50 (PC-3): 6.57
pIC50 (U-87 MG): 6.55
pIC50 (MCF7): 7.10
pIC50 (MCF-10A): 5.97

CNC(=O)c1ccccc1Nc1nc(Nc2ccc(C(=O)N3CCN(C(=S)SCCN4CCCC4)CC3)cc2)ncc1Cl
pIC50 (HCT-116): 8.00
pIC50 (PC-3): 6.66
pIC50 (U-87 MG): 6.70
pIC50 (MCF7): 6.80

CNC(=O)c1ccccc1Nc1nc(Nc2ccc(C(=O)N3CCN(C(=S)SCCN4CCOCC4)CC3)cc2)ncc1Cl
pIC50 (HCT-116): 5.45
pIC50 (PC-3): 6.64
pIC50 (U-87 MG): 6.33
pIC50 (MCF7): 6.48

CNC(=O)c1ccccc1Nc1nc(Nc2ccc(N3CCOCC3)cc2OC)ncc1Cl
pIC50 (HCT-116): 6.34 to 6.54
pIC50 (PC-3): 5.77 to 5.92
pIC50 (U-87 MG): 5.78 to 5.80
pIC50 (MCF7): 6.25 to 6.35
pIC50 (MCF-10A): 5.06

CNC(=O)c1ccccc1Nc1nc(Nc2ccc(C(=O)N3CCN(C(=S)SCCO)CC3)cc2)ncc1Cl
pIC50 (HCT-116): 7.70
pIC50 (PC-3): 6.62
pIC50 (U-87 MG): 6.15
pIC50 (MCF7): 6.96

CNC(=O)c1ccccc1Nc1nc(Nc2ccc(C(=O)N3CCN(C(=S)SCCN4CCCCC4)CC3)cc2)ncc1Cl
pIC50 (HCT-116): 8.00
pIC50 (PC-3): 6.42
pIC50 (U-87 MG): 6.55
pIC50 (MCF7): 6.57

CNC(=O)c1ccccc1Nc1nc(Nc2ccc(C(=O)N3CCN(C(=S)SCCN4CCN(C)CC4)CC3)cc2)ncc1Cl
pIC50 (HCT-116): 8.00
pIC50 (PC-3): 6.59
pIC50 (U-87 MG): 6.21
pIC50 (MCF7): 6.66

CNC(=O)c1ccccc1Nc1nc(Nc2ccc(C(=O)N3CCN(C(=S)SCCc4ccccc4)CC3)cc2)ncc1Cl
pIC50 (HCT-116): 5.42
pIC50 (PC-3): < 4.70
pIC50 (U-87 MG): < 4.70
pIC50 (MCF7): 4.93

CNC(=O)c1ccc(Nc2ncc(C(F)(F)F)c(NCc3nccnc3N(C)S(C)(=O)=O)n2)cc1 [DEFACTINIB]
pIC50 (HCT-116): 5.52 to 5.58
pIC50 (PC-3): < 4.70
pIC50 (U-87 MG): 4.99
pIC50 (MCF7): 5.01 to 5.05
pIC50 (MCF-10A): 4.73

CNC(=O)c1ccccc1Nc1nc(Nc2ccc(C(=O)N3CCN(C(=S)SCCOC)CC3)cc2)ncc1Cl
pIC50 (HCT-116): 7.40
pIC50 (PC-3): 6.34
pIC50 (U-87 MG): 6.21
pIC50 (MCF7): 6.52

CNC(=O)c1ccccc1Nc1nc(Nc2ccc(C(=O)N3CCN(C(=S)SCCC#N)CC3)cc2)ncc1Cl
pIC50 (HCT-116): 7.52
pIC50 (PC-3): 6.77
pIC50 (U-87 MG): 5.76
pIC50 (MCF7): 5.14

CNC(=O)c1ccccc1Nc1ccnc(Nc2ccc(C(=O)N3CCN(C(=S)SCCN(C)C)CC3)cc2)n1
pIC50 (HCT-116): 6.36
pIC50 (PC-3): 5.52
pIC50 (U-87 MG): 5.55
pIC50 (MCF7): 5.70
pIC50 (MCF-10A): 5.21

CNC(=O)c1ccccc1Nc1nc(Nc2ccc(C(=O)N3CCN(C(=S)SCc4ccccc4)CC3)cc2)ncc1Cl
pIC50 (HCT-116): 7.30
pIC50 (PC-3): 4.77
pIC50 (U-87 MG): 5.47
pIC50 (MCF7): < 4.70

CNC(=O)c1ccccc1Nc1nc(Nc2ccc(C(=O)N3CCN(C(=S)SCCN(C)C)CC3)cc2)ncc1Cl
pIC50 (HCT-116): 8.40
pIC50 (PC-3): 7.05
pIC50 (U-87 MG): 6.44 to 6.70
pIC50 (MCF7): 7.05 to 7.10
pIC50 (MCF-10A): 6.14

CNC(=O)c1ccccc1Nc1nc(Nc2ccc(C(=O)N3CCN(C(=S)SCc4ccccn4)CC3)cc2)ncc1Cl
pIC50 (HCT-116): 7.22
pIC50 (PC-3): 6.40
pIC50 (U-87 MG): 5.60
pIC50 (MCF7): 6.41

CNC(=O)c1ccccc1Nc1nc(Nc2ccc(C(=O)N3CCN(C(=S)SCc4cccnc4)CC3)cc2)ncc1Cl
pIC50 (HCT-116): 7.52
pIC50 (PC-3): 6.35
pIC50 (U-87 MG): 5.82
pIC50 (MCF7): 6.41

CNC(=O)c1ccccc1Nc1nc(Nc2ccc(C(=O)N3CCN(C(=S)SCCC4OCCO4)CC3)cc2)ncc1Cl
pIC50 (HCT-116): 7.30
pIC50 (PC-3): 6.16
pIC50 (U-87 MG): 5.56
pIC50 (MCF7): 6.68

CCOC(=O)C(=O)CSC(=S)N1CCN(C(=O)c2ccc(Nc3ncc(Cl)c(Nc4ccccc4C(=O)NC)n3)cc2)CC1
pIC50 (HCT-116): 7.22
pIC50 (PC-3): 6.33
pIC50 (U-87 MG): 5.94
pIC50 (MCF7): 6.28

CNC(=O)c1ccccc1Nc1nc(Nc2ccc(C(=O)N3CCN(C(=S)SCC4CCOCC4)CC3)cc2)ncc1Cl
pIC50 (HCT-116): 7.05
pIC50 (PC-3): 6.51
pIC50 (U-87 MG): < 4.70
pIC50 (MCF7): 6.27

CNC(=O)c1ccccc1Nc1nc(Nc2ccc(C(=O)N3CCN(C(=S)SCCN(C)C)CC3)cc2)ncc1F
pIC50 (HCT-116): 7.52
pIC50 (PC-3): 6.44
pIC50 (U-87 MG): 6.16
pIC50 (MCF7): 6.80
pIC50 (MCF-10A): 5.76

CCOC(=O)CSC(=S)N1CCN(C(=O)c2ccc(Nc3ncc(Cl)c(Nc4ccccc4C(=O)NC)n3)cc2)CC1
pIC50 (HCT-116): 5.33
pIC50 (PC-3): 5.45
pIC50 (U-87 MG): 5.12
pIC50 (MCF7): 5.00

CNC(=O)c1ccccc1Nc1nc(Nc2ccc(C(=O)N3CCN(C(=S)SCCS(C)(=O)=O)CC3)cc2)ncc1Cl
pIC50 (HCT-116): 7.52
pIC50 (PC-3): 6.28
pIC50 (U-87 MG): 6.04
pIC50 (MCF7): 6.40

CNC(=O)c1ccccc1Nc1nc(Nc2ccc(C(=O)N3CCN(C(=S)SCc4ccncc4)CC3)cc2)ncc1Cl
pIC50 (HCT-116): 7.22
pIC50 (PC-3): 6.44
pIC50 (U-87 MG): 5.77
pIC50 (MCF7): 6.11

CNC(=O)c1ccccc1Nc1nc(Nc2ccc(C(=O)N3CCN(C(=S)SCC(C)O)CC3)cc2)ncc1Cl (stereo not given)
pIC50 (HCT-116): 7.52
pIC50 (PC-3): 6.70
pIC50 (U-87 MG): 6.06
pIC50 (MCF7): 6.96

C=CCSC(=S)N1CCN(C(=O)c2ccc(Nc3ncc(Cl)c(Nc4ccccc4C(=O)NC)n3)cc2)CC1
pIC50 (HCT-116): 6.96
pIC50 (PC-3): 5.99
pIC50 (U-87 MG): < 4.70
pIC50 (MCF7): 5.86

CNC(=O)c1ccccc1Nc1nc(Nc2ccc(C(=O)N3CCN(C(=S)SCCN(C)C)CC3)cc2)ncc1OC
pIC50 (HCT-116): 6.80
pIC50 (PC-3): 6.04
pIC50 (U-87 MG): 5.79
pIC50 (MCF7): 6.44
pIC50 (MCF-10A): 5.61

CNC(=O)c1ccccc1Nc1nc(Nc2ccc(C(=O)N3CCN(C(=S)SCCC(=O)OC)CC3)cc2)ncc1Cl
pIC50 (HCT-116): 6.59
pIC50 (PC-3): 5.70
pIC50 (U-87 MG): 5.88
pIC50 (MCF7): 5.64

Source: ChEMBL document CHEMBL4350989, “Discovery of 2,4-diarylaminopyrimidine derivatives bearing dithiocarbamate moiety as novel FAK inhibitors with antitumor and anti-angiogenesis activities” (Eur J Med Chem, 2019)
